The text below walks through data of ChEMBL document CHEMBL1144756, “Isoprenoid glycosides from Liriosma ovata” (2008).

In general, MIC refers to the least concentration at which growth counts as inhibited. What is called MBC is the lowest tested concentration that kills the bacteria rather than only halting them. A higher MBC goes with weaker bactericidal potency.

Common to all, as to type: functional
The test system of one test is Pseudomonas aeruginosa. Briefly: Antibacterial activity against Pseudomonas aeruginosa ATCC 9027 after 24 hrs by broth microdilution method. To be noted: ATCC 9027, 24 h. For orientation: In broth dilution the organism is exposed to a series of concentrations in liquid medium.
The test system of a further test is Staphylococcus aureus. Briefly: Antibacterial activity against Staphylococcus aureus ATCC 6538 after 24 hrs by broth microdilution method. Conditions: ATCC 6538, 24 h.
For the next test, the system named is Mus musculus. As to the kind of experiment: Antiinflammatory activity against corton oil-induced ear edema in mouse.

Converted amounts (≈) assume the structure as drawn.

Consider `CC(=O)/C=C/[C@@]1(O)[C@H](C)C[C@H](O[C@@H]2O[C@H](CO[C@@H]3OC[C@](O)(CO)[C@H]3O)[C@@H](O)[C@H](O)[C@H]2O)CC1(C)C`, for which the results for the MIC against Pseudomonas aeruginosa and against Staphylococcus aureus were greater than 20 mg/L and 4 mg/L (≈ 7.68 µM), respectively.
`COc1ccc2c(c1)c(CC(=O)O)c(C)n2C(=O)c1ccc(Cl)cc1` [INDOMETHACIN] had an ID50 with Mus musculus of 93 microg/cm2.
In the test on Pseudomonas aeruginosa, `CC(C)(O)[C@@H]1CC[C@]2(C)[C@@H](O[C@@H]3O[C@H](CO)[C@@H](O)[C@H](O)[C@H]3O)C[C@@H](O)[C@](C)(O)[C@H]2C1` yielded an MBC of 4 mg/L (≈ 9.21 µM) and an MIC of 4 mg/L (≈ 9.21 µM). In the test on Staphylococcus aureus, this compound had an MBC of 4 mg/L (≈ 9.21 µM) and an MIC of 2 mg/L (≈ 4.6 µM).
In the case of `CC(C)O[C@@H]1O[C@H](CO[C@@H]2OC[C@](O)(CO)[C@H]2O)[C@@H](O)[C@H](O)[C@H]1O`, the MIC in the test on Pseudomonas aeruginosa and against Staphylococcus aureus was greater than 20 mg/L throughout.
